pIC50: −log10 of the molar value.
Assay: In vitro inhibition of EGF-stimulated DNA synthesis of ER 22 cells by following the incorporation of methyl-[3H]thymidine.
A pIC50 of 5.85 was found for `O=C(NCc1ccccc1)c1ccc(-c2ccc(-c3ccccc3)cc2O)cc1` [2'-Hydroxy-[1,1';4',1'']terphenyl-4-carboxylic acid benzylamide] in this work.
A pIC50 of less than 5.00 was found for `CC(COC(=O)c1ccc(-c2cccc(-c3ccccc3)c2O)cc1)CC(C)(C)C` (stereo not given) in this work.
A pIC50 of less than 5.30 was found for `CC(COC(=O)c1ccc(-c2cc(O)cc(C(C)(C)C)c2)cc1)CC(C)(C)C` (stereo not given) in this work.
A pIC50 of 5.00 was found for `COCOc1cc(C(C)(C)C)ccc1-c1ccc(C(=O)OC)cc1` [4'-tert-Butyl-2'-methoxymethoxy-biphenyl-4-carboxylic acid methyl ester] in this work.
A pIC50 of less than 5.30 was found for `COC(=O)c1ccc(-c2ccc(C(C)(C)C)cc2O)cc1` in this work.
A pIC50 of 5.10 was found for `O=C(NCc1ccccc1)c1ccc(-c2cc(O)cc(-c3ccccc3)c2)cc1` in this work.
A pIC50 of 5.96 was found for `COCOc1cc(-c2ccccc2)ccc1-c1ccc(C(=O)NCc2ccccc2)cc1` [2'-Methoxymethoxy-[1,1';4',1'']terphenyl-4-carboxylic acid benzylamide] in this work.
A pIC50 of less than 5.30 was found for `CC(COC(=O)c1ccc(-c2cc(O)cc(-c3ccccc3)c2)cc1)CC(C)(C)C` (stereo not given) in this work.
A pIC50 of less than 5.30 was found for `COC(=O)c1ccc(-c2cccc(-c3ccccc3)c2O)cc1` [2'-Hydroxy-[1,1';3',1'']terphenyl-4-carboxylic acid methyl ester] in this work.
A pIC50 of 5.00 was found for `COCOc1cc(-c2ccccc2)ccc1-c1ccc(C(=O)O)cc1` in this work.
A pIC50 of less than 4.70 was found for `CC(C)(C)c1cc(O)cc(-c2ccc(C(=O)O)cc2)c1` [3'-tert-Butyl-5'-hydroxy-biphenyl-4-carboxylic acid] in this work.
A pIC50 of 5.00 was found for `O=C(O)c1ccc(-c2cc(O)cc(-c3ccccc3)c2)cc1` in this work.
A pIC50 of less than 5.30 was found for `COCOc1cc(-c2ccccc2)ccc1-c1ccc(C(=O)OC)cc1` in this work.
A pIC50 of less than 5.00 was found for `COCOc1c(-c2ccccc2)cccc1-c1ccc(C(=O)OCC(C)CC(C)(C)C)cc1` (stereo not given) in this work.
A pIC50 of 5.27 was found for `CC(C)(C)c1cc(O)cc(-c2ccc(C(=O)NCc3ccccc3)cc2)c1` [3'-tert-Butyl-5'-hydroxy-biphenyl-4-carboxylic acid benzylamide] in this work.
